The record followed here is paper PMC4066437, “Oxidation of cellular amino acid pools leads to cytotoxic mistranslation of the genetic code” (eLife, 2014).

SMILES strings stand for the structures.

In this test the target is T1, E. coli TyrRS (Escherichia coli, UniProt P0AGJ9).
T1 construct: gene tyrS; homodimer
T1 sequence (P0AGJ9 2-424): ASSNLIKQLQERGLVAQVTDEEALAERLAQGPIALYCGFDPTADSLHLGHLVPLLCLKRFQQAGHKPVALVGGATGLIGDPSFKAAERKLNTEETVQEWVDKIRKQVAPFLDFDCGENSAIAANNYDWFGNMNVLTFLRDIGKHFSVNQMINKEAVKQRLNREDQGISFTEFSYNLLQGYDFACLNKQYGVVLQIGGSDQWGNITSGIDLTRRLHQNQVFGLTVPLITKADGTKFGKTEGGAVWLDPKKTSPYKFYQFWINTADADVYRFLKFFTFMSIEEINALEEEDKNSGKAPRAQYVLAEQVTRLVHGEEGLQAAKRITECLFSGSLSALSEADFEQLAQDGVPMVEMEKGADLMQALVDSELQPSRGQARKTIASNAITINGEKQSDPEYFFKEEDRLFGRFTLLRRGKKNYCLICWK
The test can be described thus: aminoacylation of […]-tRNA transcript. Type of test: biochemical. Conditions: 1 mM m-Tyr, 50 nM TyrRS, 25 °C; tRNA named tRNA(Tyr) in text, tRNA(Phe) in legend.

Consider `NC(Cc1cccc(O)c1)C(=O)O` (racemic) [m-Tyr, D,L-m-Tyr], for which the “aminoacylation of 32P-tRNA transcript” value was “Aminoacylation of tRNA^Tyr with m-Tyr by E. coli TyrRS was detected in vitro”.
